According to US9902696B2, “1,4-substituted piperidine derivatives” (Cephalon, Inc., priority 2015, dated 2018):

What was measured:
[1] = biological target: T1, recombinant human baculovirus-expressed GST-tagged FASN (Homo sapiens, UniProt P49327); experiment: FASN enzyme activity assay, fluorescence-based detection of CoA with CPM; assay type: biochemical; conditions: 5 nM FASN, 150 μM NADPH, 10 μM acetyl-CoA, 25 μM malonyl-CoA, 90 minutes incubation; read-out: IC50 data for Additional Compounds of Formulae I-V(a): Activity
T1 construct: GST
Outline: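 Human GST-tagged FASN, baculovirus-expressed (5 nM), in 50 mM HEPES pH 7.5 with 150 μM NADPH, 10 μM acetyl-CoA, 25 μM malonyl-CoA, 0.5% DMSO; malonyl-CoA-started, 90 min. Released CoA detected with CPM (50 μM dilution), 30 min, fluorescence ex 390/em 530. IC50 from variable-slope sigmoidal fit of % inhibition versus log concentration.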

T1 sequence (P49327 whole entry): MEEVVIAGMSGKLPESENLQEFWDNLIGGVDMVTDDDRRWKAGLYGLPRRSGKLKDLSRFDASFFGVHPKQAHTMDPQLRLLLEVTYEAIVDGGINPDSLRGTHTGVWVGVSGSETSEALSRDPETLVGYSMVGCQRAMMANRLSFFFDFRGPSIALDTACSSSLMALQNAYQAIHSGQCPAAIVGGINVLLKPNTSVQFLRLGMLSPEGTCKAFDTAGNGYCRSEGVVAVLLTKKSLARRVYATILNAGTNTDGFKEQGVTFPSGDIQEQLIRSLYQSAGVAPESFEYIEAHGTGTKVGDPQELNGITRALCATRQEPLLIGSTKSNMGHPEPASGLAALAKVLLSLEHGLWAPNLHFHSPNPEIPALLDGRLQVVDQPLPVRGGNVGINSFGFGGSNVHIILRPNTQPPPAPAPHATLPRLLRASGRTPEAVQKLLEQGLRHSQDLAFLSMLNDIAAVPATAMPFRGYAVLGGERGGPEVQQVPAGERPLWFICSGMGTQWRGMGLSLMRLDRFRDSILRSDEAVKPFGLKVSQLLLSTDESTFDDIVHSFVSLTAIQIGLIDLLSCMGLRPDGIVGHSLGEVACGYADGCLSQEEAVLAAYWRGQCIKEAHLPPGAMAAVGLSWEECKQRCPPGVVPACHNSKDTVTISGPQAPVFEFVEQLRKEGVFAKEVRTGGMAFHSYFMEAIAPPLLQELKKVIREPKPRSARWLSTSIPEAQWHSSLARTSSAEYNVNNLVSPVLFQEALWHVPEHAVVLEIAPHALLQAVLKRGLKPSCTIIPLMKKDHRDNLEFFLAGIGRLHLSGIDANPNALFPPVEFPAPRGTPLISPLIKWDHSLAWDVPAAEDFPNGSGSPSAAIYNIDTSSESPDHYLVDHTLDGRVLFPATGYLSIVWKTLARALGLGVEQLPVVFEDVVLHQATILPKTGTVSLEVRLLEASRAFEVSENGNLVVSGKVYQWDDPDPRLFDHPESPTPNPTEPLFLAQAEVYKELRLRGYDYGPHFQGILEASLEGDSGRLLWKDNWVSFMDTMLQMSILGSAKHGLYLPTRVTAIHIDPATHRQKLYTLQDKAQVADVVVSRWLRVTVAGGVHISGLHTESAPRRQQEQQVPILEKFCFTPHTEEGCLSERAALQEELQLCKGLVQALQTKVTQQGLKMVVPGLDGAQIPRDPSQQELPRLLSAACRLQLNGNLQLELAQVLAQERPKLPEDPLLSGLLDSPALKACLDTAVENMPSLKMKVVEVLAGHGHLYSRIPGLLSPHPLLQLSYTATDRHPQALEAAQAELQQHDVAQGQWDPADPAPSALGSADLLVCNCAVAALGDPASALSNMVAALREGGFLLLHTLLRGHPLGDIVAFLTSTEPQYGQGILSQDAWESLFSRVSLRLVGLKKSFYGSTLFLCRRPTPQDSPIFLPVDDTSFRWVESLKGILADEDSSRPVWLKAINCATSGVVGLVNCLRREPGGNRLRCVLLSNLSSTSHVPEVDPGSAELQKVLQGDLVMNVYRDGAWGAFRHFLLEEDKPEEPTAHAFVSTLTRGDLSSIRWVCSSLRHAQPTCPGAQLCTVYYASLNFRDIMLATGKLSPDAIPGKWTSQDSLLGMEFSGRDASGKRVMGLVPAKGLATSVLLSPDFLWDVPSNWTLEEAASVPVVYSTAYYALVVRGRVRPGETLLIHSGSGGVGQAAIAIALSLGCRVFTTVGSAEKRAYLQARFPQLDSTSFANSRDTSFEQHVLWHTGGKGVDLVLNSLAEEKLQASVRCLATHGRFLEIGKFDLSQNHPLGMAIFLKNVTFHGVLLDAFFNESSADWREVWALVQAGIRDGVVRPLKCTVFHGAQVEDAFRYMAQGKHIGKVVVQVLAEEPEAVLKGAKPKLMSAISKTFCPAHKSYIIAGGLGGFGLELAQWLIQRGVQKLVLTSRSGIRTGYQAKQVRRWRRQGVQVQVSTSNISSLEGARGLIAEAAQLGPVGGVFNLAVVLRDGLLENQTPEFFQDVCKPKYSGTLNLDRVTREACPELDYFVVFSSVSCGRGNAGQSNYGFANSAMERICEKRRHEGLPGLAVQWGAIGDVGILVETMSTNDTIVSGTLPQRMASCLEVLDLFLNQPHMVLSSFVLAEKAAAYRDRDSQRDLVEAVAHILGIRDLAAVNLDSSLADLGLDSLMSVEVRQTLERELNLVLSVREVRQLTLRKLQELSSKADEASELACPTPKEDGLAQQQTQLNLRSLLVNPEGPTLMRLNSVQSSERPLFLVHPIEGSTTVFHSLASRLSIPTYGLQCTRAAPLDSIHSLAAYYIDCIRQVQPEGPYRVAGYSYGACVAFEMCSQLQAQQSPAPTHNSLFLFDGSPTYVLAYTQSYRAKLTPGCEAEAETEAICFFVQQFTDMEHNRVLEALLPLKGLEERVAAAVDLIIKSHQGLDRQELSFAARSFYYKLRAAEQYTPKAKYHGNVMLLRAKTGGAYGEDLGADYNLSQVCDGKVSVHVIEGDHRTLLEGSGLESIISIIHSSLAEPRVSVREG

IC50 [1] [µM] | melting point [°C] | SMILES
1 to 10 | 211 | CCNC(=O)N1CCC(Oc2ccc(-c3ccc4c(C)nccc4c3)cc2)CC1 [Example 578, N-Ethyl-4-[4-(1-methyl-6-isoquinolyl)phenoxy]piperidine-1-carboxamide]
0.1 to 0.999 | 181 | CCCNC(=O)N1CCC(Oc2ccc(-c3ccc4c(C)nccc4c3)cc2)CC1 [Example 579, 4-[4-(1-Methyl-6-isoquinolyl)phenoxy]-N-propyl-piperidine-1-carboxamide]
0.001 to 0.099 | 157 | Cc1nccc2cc(-c3ccc(OC4CCN(C(=O)NCC(C)C)CC4)cc3)ccc12 [Example 580, N-Isobutyl-4-[4-(1-methyl-6-isoquinolyl)phenoxy]piperidine-1-carboxamide]
0.001 to 0.099 | 232 | Cc1nccc2cc(-c3ccc(OC4CCN(C(N)=O)CC4)cc3)ccc12 [Example 581, 4-[4-(1-Methyl-6-isoquinolyl)phenoxy]piperidine-1-carboxamide]
1 to 10 | 188 | Cc1nccc2cc(-c3ccc(OC4CCN(C(=O)NCC5CC5)CC4)cc3)ccc12 [Example 582, N-(Cyclopropylmethyl)-4-[4-(1-methyl-6-isoquinolyl)phenoxy]piperidine-1-carboxamide]
0.001 to 0.099 | 189 | Cc1nccc2cc(-c3ccc(OC4CCN(C(=O)NOC(C)C)CC4)cc3)ccc12 [Example 583, N-Isopropoxy-4-[4-(1-methyl-6-isoquinolyl)phenoxy]piperidine-1-carboxamide]
0.001 to 0.099 | 165 | CCCONC(=O)N1CCC(Oc2ccc(-c3ccc4c(C)nccc4c3)cc2)CC1 [Example 584, 4-[4-(1-Methyl-6-isoquinolyl)phenoxy]-N-propoxypiperidine-1-carboxamide]
0.1 to 0.999 | 185 | Cc1nccc2cc(-c3ccc(OC4CCN(C(=O)NO)CC4)cc3)ccc12 [Example 585, 4-[4-(1-Methyl-6-isoquinolyl)phenoxy]piperidine-1-carbohydroxamic acid]
1 to 10 | 208 | CCONC(=O)N1CCC(Oc2ccc(-c3ccc4c(C)nccc4c3)cc2)CC1 [Example 586, N-Ethoxy-4-[4-(1-methyl-6-isoquinolyl)phenoxy]piperidine-1-carboxamide]
0.001 to 0.099 | 152 | CCONC(=O)N1CCC(Oc2ccc(-c3cnc4ccccc4c3C)cc2)CC1 [Example 587, N-Ethoxy-4-[4-(4-methyl-3-quinolyl)phenoxy]piperidine-1-carboxamide]
0.001 to 0.099 | 80 | Cc1c(-c2ccc(OC3CCN(C(=O)NOC(C)C)CC3)cc2)cnc2ccccc12 [Example 588, N-Isopropoxy-4-[4-(4-methyl-3-quinolyl)phenoxy]piperidine-1-carboxamide]
0.001 to 0.099 | 75 | CCCONC(=O)N1CCC(Oc2ccc(-c3cnc4ccccc4c3C)cc2)CC1 [Example 589, 4-[4-(4-Methyl-3-quinolyl)phenoxy]-N-propoxy-piperidine-1-carboxamide]
0.001 to 0.099 | 153 | Cc1c(-c2ccc(OC3CCN(C(=O)NCC(C)C)CC3)cc2)cnc2ccccc12 [Example 590, N-Isobutyl-4-[4-(4-methyl-3-quinolyl)phenoxy]piperidine-1-carboxamide]
0.001 to 0.099 | 171 | CCCNC(=O)N1CCC(Oc2ccc(-c3cnc4ccccc4c3C)cc2)CC1 [Example 591, 4-[4-(4-Methyl-3-quinolyl)phenoxy]-N-propyl-piperidine-1-carboxamide]
